Laboratory results from ChEMBL document CHEMBL3132769, “Fragment growing to retain or alter the selectivity of anchored kinase hinge-binding fragments” (Medchemcomm, 2014).

Experiments:
[1] = molecular target: Calcium/calmodulin-dependent protein kinase type II subunit beta (Homo sapiens) (UniProt Q13554); test: Inhibition of human CAMK2 beta catalytic domain expressed in baculovirus assessed as substrate phosphorylation using fluorescence-labelled peptides as substrate at 8 uM after 90 mins by microfluidic peptide phosphorylation assay
Sequence of Calcium/calmodulin-dependent protein kinase type II subunit beta (Homo sapiens) (Q13554 whole entry, the tested form may be a part): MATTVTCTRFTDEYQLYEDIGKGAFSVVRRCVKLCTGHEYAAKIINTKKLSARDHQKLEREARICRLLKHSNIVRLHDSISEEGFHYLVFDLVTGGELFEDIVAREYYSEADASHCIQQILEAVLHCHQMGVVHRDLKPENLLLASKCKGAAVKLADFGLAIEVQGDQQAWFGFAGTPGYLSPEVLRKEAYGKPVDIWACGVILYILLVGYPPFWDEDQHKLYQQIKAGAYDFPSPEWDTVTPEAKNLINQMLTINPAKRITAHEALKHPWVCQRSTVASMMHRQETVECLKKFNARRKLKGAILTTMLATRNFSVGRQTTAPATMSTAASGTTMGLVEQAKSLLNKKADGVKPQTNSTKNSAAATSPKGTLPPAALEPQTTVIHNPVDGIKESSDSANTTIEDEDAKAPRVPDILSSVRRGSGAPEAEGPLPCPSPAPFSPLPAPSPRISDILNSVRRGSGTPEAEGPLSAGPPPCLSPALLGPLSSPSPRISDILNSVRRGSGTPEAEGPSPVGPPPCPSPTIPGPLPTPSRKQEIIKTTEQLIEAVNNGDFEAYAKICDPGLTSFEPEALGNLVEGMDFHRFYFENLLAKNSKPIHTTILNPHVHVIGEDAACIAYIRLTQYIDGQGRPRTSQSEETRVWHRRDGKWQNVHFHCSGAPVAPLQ

[2] = molecular target: Insulin-like growth factor 1 receptor (Homo sapiens) (UniProt P08069); test: Inhibition of human IGF1R catalytic domain expressed in baculovirus assessed as substrate phosphorylation using fluorescence-labelled peptides as substrate at 0.06 uM after 90 mins by microfluidic peptide phosphorylation assay
[3] = molecular target: Tyrosine-protein kinase ABL1 (Homo sapiens) (UniProt P00519); test: Inhibition of human full-length ABL expressed in baculovirus assessed as substrate phosphorylation using fluorescence-labelled peptides as substrate at 0.06 uM after 90 mins by microfluidic peptide phosphorylation assay
[4] = molecular target: Receptor-type tyrosine-protein kinase FLT3 (Homo sapiens) (UniProt P36888); test: Inhibition of human FLT3 catalytic domain expressed in baculovirus assessed as substrate phosphorylation using fluorescence-labelled peptides as substrate at 0.2 uM after 90 mins by microfluidic peptide phosphorylation assay
Homo sapiens = organism: Homo sapiens; test: Inhibition of human full length PKA expressed in baculovirus assessed as substrate phosphorylation using fluorescence-labelled peptides as substrate at 0.2 uM after 90 mins by microfluidic peptide phosphorylation assay
[5] = molecular target: Insulin-like growth factor 1 receptor (Homo sapiens) (UniProt P08069); test: Inhibition of human IGF1R catalytic domain expressed in baculovirus assessed as substrate phosphorylation using fluorescence-labelled peptides as substrate at […] after 90 mins by microfluidic peptide phosphorylation assay
[6] = molecular target: Ribosomal protein S6 kinase alpha-5 (Homo sapiens) (UniProt O75582); test: Inhibition of human full length MSK1 expressed in baculovirus assessed as substrate phosphorylation using fluorescence-labelled peptides as substrate at […] after 90 mins by microfluidic peptide phosphorylation assay
Sequence of Ribosomal protein S6 kinase alpha-5 (Homo sapiens) (O75582 whole entry, looked up): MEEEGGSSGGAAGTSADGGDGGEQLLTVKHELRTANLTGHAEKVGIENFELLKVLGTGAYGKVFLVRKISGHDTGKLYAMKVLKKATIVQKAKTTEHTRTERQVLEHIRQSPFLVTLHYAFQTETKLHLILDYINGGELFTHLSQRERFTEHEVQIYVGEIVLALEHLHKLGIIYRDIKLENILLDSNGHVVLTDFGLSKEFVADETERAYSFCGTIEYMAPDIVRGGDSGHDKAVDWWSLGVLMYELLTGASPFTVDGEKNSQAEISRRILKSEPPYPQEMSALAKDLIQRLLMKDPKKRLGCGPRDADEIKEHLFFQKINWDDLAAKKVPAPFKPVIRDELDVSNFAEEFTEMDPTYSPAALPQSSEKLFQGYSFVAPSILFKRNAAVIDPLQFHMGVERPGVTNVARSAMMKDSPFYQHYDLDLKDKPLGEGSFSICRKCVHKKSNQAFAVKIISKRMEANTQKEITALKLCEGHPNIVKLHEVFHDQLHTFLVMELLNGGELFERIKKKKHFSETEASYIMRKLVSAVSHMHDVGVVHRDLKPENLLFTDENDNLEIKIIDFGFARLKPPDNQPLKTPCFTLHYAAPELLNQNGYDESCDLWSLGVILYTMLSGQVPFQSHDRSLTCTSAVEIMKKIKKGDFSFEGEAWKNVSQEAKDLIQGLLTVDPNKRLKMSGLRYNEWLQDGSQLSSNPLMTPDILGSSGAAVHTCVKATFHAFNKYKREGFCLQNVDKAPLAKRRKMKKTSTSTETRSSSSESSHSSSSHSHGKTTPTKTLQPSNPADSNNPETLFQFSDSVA

[7] = molecular target: Serine/threonine-protein kinase pim-1 (Homo sapiens) (UniProt P11309); test: Inhibition of human full length PIM1 expressed in baculovirus assessed as substrate phosphorylation using fluorescence-labelled peptides as substrate at 9 uM after 90 mins by microfluidic peptide phosphorylation assay
Sequence of Serine/threonine-protein kinase pim-1 (Homo sapiens) (P11309 whole entry, looked up, the tested form may be a part): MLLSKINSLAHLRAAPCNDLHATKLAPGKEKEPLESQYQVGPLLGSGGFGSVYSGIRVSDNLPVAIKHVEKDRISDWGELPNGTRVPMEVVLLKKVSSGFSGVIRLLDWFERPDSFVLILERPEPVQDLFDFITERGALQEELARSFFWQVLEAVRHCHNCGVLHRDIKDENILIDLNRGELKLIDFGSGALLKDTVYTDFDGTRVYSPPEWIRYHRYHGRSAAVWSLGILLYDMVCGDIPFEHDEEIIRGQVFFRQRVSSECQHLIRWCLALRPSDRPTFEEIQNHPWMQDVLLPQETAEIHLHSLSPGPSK

[8] = molecular target: Fibroblast growth factor receptor 4 (Homo sapiens) (UniProt P22455); test: Inhibition of human FGFR4 catalytic domain expressed in baculovirus assessed as substrate phosphorylation using fluorescence-labelled peptides as substrate at 9 uM after 90 mins by microfluidic peptide phosphorylation assay
Sequence of Fibroblast growth factor receptor 4 (Homo sapiens) (P22455 22-802 limits assumed): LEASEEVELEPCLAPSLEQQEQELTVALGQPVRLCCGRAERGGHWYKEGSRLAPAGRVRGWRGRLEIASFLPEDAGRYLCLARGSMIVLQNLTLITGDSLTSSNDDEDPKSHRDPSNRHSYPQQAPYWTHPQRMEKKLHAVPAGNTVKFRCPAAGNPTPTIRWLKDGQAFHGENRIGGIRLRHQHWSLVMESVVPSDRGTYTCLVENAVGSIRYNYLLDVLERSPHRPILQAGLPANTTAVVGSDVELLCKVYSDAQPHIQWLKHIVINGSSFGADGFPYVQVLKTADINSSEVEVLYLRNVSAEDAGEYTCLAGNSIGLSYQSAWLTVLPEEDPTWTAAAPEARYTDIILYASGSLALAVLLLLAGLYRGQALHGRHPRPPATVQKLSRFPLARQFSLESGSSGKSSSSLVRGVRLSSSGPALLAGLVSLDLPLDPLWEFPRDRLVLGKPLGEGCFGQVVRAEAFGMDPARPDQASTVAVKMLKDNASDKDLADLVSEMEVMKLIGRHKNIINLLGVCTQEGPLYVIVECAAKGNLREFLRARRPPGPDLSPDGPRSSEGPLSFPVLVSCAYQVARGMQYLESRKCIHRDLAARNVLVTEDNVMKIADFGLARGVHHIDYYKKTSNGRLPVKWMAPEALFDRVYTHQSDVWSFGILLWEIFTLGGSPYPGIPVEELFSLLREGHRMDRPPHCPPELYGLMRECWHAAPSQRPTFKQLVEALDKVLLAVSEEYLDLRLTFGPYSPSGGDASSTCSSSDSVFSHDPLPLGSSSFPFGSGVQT

[9] = molecular target: Proto-oncogene tyrosine-protein kinase Src (Homo sapiens) (UniProt P12931); test: Inhibition of human full length SRC expressed in baculovirus assessed as substrate phosphorylation using fluorescence-labelled peptides as substrate at 9 uM after 90 mins by microfluidic peptide phosphorylation assay
Sequence of Proto-oncogene tyrosine-protein kinase Src (Homo sapiens) (P12931 2-536 limits assumed): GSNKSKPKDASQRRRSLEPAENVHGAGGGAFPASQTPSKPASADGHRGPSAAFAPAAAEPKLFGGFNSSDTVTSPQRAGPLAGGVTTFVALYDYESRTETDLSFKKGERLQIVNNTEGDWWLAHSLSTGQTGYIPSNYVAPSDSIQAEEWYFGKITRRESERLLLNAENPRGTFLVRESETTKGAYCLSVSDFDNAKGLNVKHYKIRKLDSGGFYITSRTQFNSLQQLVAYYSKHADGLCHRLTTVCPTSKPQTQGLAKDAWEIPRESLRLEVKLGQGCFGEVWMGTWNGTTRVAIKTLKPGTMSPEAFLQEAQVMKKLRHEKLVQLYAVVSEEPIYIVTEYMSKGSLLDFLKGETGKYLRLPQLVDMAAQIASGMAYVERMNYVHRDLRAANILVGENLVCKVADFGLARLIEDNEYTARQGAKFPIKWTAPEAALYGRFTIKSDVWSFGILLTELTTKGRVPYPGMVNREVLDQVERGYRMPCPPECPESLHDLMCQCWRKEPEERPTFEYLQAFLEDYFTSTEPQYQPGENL

[10] = molecular target: Glycogen synthase kinase-3 beta (Homo sapiens) (UniProt P49841); test: Inhibition of human full length GSK-3 beta expressed in baculovirus assessed as substrate phosphorylation using fluorescence-labelled peptides as substrate at 95 uM after 90 mins by microfluidic peptide phosphorylation assay
[11] = molecular target: Protein kinase C gamma type (Homo sapiens) (UniProt P05129); test: Inhibition of human truncated PKC gamma expressed in baculovirus assessed as substrate phosphorylation using fluorescence-labelled peptides as substrate at 95 uM after 90 mins by microfluidic peptide phosphorylation assay
[12] = molecular target: Casein kinase I isoform delta (Homo sapiens) (UniProt P48730); test: Inhibition of human CK1D catalytic domain expressed in Escherichia coli cell assessed as substrate phosphorylation using fluorescence-labelled peptides as substrate at 95 uM after 90 mins by microfluidic peptide phosphorylation assay
Sequence of Casein kinase I isoform delta (Homo sapiens) (P48730 whole entry, looked up, the tested form may be a part, canonical isoform): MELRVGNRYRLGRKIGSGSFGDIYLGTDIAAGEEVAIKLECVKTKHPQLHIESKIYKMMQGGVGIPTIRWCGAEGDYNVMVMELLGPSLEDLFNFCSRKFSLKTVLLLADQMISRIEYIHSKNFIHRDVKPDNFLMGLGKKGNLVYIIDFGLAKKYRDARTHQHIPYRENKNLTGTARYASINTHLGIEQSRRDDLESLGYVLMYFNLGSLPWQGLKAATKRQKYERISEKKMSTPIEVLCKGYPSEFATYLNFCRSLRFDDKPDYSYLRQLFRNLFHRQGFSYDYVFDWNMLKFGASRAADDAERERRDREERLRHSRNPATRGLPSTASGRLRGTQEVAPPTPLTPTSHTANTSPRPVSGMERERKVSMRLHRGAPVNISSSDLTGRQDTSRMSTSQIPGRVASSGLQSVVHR

[13] = molecular target: T1, Cytoplasmic tyrosine-protein kinase BMX (Homo sapiens) (UniProt P51813); test: Inhibition of human full length BMX expressed in baculovirus assessed as substrate phosphorylation using fluorescence-labelled peptides as substrate at 95 uM after 90 mins by microfluidic peptide phosphorylation assay
T1 sequence (whole entry): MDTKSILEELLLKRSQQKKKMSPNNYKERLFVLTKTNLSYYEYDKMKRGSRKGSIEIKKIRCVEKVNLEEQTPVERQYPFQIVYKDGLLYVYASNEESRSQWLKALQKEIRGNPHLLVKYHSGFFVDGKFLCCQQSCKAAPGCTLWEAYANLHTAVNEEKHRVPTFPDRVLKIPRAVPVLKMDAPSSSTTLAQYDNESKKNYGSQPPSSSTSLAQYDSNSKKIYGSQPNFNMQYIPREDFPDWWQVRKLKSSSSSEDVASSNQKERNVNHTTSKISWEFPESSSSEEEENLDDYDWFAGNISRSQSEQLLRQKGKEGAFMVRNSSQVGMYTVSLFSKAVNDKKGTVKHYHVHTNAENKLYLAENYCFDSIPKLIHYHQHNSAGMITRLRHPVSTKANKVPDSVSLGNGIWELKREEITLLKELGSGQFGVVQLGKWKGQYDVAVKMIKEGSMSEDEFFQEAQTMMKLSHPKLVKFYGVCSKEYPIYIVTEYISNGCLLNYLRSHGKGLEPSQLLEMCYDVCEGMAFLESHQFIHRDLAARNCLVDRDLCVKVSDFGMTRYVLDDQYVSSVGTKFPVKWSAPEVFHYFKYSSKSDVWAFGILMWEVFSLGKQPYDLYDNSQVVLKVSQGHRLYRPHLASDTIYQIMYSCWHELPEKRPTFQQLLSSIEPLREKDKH

[14] = molecular target: T2, Calcium/calmodulin-dependent protein kinase type IV (Homo sapiens) (UniProt Q16566); test: Inhibition of human full length CAMK4 expressed in baculovirus assessed as substrate phosphorylation using fluorescence-labelled peptides as substrate at 70 uM after 90 mins by microfluidic peptide phosphorylation assay
T2 sequence (whole entry): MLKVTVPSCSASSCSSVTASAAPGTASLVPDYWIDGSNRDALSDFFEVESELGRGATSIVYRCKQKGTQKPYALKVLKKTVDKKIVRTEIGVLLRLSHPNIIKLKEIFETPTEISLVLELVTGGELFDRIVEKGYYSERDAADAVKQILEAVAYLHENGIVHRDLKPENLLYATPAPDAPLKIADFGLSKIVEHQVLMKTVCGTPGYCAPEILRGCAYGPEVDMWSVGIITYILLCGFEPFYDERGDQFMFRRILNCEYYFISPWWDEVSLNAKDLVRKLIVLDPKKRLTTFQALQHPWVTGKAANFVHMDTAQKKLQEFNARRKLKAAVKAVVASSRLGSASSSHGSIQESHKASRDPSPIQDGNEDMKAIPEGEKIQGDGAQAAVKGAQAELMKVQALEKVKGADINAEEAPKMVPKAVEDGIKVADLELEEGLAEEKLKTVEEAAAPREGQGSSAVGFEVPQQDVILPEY

[15] = molecular target: Ribosomal protein S6 kinase alpha-3 (Homo sapiens) (UniProt P51812); test: Inhibition of human full length RSK2 expressed in baculovirus assessed as substrate phosphorylation using fluorescence-labelled peptides as substrate at 70 uM after 90 mins by microfluidic peptide phosphorylation assay
Sequence of Ribosomal protein S6 kinase alpha-3 (Homo sapiens) (P51812 whole entry): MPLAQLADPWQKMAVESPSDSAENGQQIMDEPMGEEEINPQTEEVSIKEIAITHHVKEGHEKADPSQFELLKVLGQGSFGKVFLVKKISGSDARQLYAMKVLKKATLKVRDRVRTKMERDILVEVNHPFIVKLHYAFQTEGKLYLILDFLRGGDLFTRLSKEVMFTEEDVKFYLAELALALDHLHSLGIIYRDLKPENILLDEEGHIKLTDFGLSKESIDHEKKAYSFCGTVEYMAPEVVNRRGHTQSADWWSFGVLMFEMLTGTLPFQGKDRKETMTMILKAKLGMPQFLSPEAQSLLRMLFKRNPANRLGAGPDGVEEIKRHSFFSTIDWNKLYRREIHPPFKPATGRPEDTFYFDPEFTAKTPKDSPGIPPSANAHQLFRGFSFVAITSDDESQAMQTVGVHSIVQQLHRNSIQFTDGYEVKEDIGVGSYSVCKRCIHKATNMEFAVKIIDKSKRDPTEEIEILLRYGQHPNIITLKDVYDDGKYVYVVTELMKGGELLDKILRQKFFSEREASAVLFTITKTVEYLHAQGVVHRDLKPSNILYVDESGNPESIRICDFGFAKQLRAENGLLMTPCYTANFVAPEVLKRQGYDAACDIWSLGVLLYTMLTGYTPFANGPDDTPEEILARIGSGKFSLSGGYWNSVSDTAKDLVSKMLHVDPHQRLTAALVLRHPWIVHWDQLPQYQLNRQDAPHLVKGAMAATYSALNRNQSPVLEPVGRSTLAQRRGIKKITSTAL

[16] = molecular target: Calcium/calmodulin-dependent protein kinase type II subunit delta (Homo sapiens) (UniProt Q13557); test: Inhibition of human full length CAMK2D expressed in baculovirus assessed as substrate phosphorylation using fluorescence-labelled peptides as substrate at 420 uM after 90 mins by microfluidic peptide phosphorylation assay

In the case of `NCC1CCN(c2ncnc3[nH]ccc23)CC1`, the inhibition [1] is reported as 81%.

`NC1(Cc2ccc(Cl)cc2)CCN(c2ncnc3[nH]ccc23)CC1` showed an inhibition [2] of 0% and an inhibition [3] of 13%.

In the case of `Clc1ccc(C2(c3ccc(-c4ncnc5[nH]cnc45)cc3)CCNCC2)cc1`, the inhibition [4] is reported as 7.5% and the inhibition (Homo sapiens) is reported as 100%.

`COC(=O)c1cnc(Nc2cnc(C#N)cn2)cc1NCC1CCNCC1` was tested, and the inhibition [5] was 3.5% and the inhibition [6] was 8%.

`NCC1CN(c2ncnc3[nH]c4cnccc4c23)CCO1` (configuration not stated) gave an inhibition [7] of 36.5%, an inhibition [8] of 0% and an inhibition [9] of 19.5%.

`NCCc1ccc(-c2ncnc3[nH]cnc23)cc1` gave an inhibition [10] of 55%, an inhibition [11] of 71% and an inhibition [12] of 77.5%. The inhibition [13] was 0%.

For `CNCc1ccc(-c2ncnc3[nH]cnc23)cc1`, the inhibition [14] was 77.5% and the inhibition [15] was 75%.

Work on `c1nc(N2CCOCC2)c2nc[nH]c2n1` yielded an inhibition [16] of 63.5%.
